# pIC50: −log10 of the molar value.
# Tests used:
# Assay type in all cases: cell-based
# hTRPML3 = target: T1, hTRPML3 (Homo sapiens, UniProt Q8TDD5); assay: Whole-cell patch-clamp, tetracycline-inducible HEK293 hTRPML3; conditions: 30 µM ML-SA1, pH 7.4
# T1 construct: host or cells: HEK293, FLP-in-Tet-On, tetracycline-induced
# T1 sequence (Q8TDD5 1-553): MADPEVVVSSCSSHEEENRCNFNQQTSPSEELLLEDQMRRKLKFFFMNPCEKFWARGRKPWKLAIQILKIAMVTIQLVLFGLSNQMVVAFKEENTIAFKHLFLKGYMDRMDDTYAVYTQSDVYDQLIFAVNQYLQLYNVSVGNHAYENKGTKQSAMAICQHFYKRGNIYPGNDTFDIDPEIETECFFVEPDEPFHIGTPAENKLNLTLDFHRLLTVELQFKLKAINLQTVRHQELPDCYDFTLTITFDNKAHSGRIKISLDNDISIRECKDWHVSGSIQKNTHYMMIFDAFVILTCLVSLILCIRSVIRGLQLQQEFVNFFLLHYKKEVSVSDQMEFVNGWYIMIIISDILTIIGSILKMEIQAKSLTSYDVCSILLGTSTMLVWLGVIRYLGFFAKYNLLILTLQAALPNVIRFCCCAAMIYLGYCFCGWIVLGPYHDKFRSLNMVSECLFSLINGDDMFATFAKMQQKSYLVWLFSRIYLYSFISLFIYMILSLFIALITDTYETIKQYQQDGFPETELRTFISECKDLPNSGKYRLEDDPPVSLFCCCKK
# Experimental: (§1) For whole-cell patch-clamp experiments tetracycline-inducible hTRPML1L15/16A, L577/578A, hTRPML2 and TRPML3 HEK293 cell lines were used, generated by ICAGEN Inc. using the FLP-in-Tet-On system. Experiments were performed as described previously[20],[42]. In brief, cells were cultured on coverslips (Fisherbrand, Fisher Scientific) in complete DMEM medium with 10% FBS (Thermo Fisher). HEK293 cells expressing the desired channel protein were patch-clamped after overnight induction with tetracycline (1 µg/mL). […] The pipette solution contained (mM) 122 Cs‐methanosulfonate, 4 NaCl, 10 EGTA, 2 Na-ATP, 2 MgCl2 and 20 HEPES, pH 7.2 (with CsOH). The standard bath solution contained (mM) 153 NaCl, 5 KCl, 2 CaCl2, 1 MgCl2, 20 HEPES and 10 Glucose (pH 7.4 with NaOH). The low pH bath solution contained (mM) 150 Na-Gluconate, 5 KCl, 2 CaCl2, 1 MgCl2, 10 glucose, 10 HEPES and 10 MES (pH 4.6). Whole‐cell currents were recorded using a Multiclamp 700B amplifier (Molecular Devices) with low‐pass filtering at 3 kHz. The currents were digitized at a sampling frequency of 10 kHz using BNC-2110 and PCI-6221 with NI-DAQmx (National Instruments) and stored directly to a hard drive. Current recording was done with WinWCP5.2.7 (University of Strathclyde, UK) software, and analysis was done with the help of a customized Igor pro program (WaveMetrics).
# [1] = tested on: TRPC3, 4, 5, 6, and 7; TRPM2, 3, and 8; TRPV1, 2, 3, and 4; assay: Fluo-4 counter screen against other TRP channels stably expressed in HEK293; conditions: most channels; activated with known ligands
# hTPC2L11A/L12A-RFP = target: T2, hTPC2L11A/L12A-RFP (Homo sapiens, UniProt Q8NHX9, L11A/L12A); assay: Fluo-4 Ca2+ assay, HEK293 stably expressing hTPC2L11A/L12A-RFP, activated with TPC2-A1-N or TPC2-A1-P; conditions: activated by either TPC2-A1-P or TPC2-A1-N
# T2 construct: expressed in transfected cells
# [2] = target: T3, hTRPML1L15/16A, L577/578A (Homo sapiens, UniProt Q9GZU1, L15A/L16A); assay: Whole-cell patch-clamp, tetracycline-inducible HEK293 hTRPML1L15/16A, L577/578A; conditions: 30 µM ML-SA1, pH 4.6; read-out: TRPML1 IC50, whole-cell patch-clamp
# T3 construct: host or cells: HEK293, FLP-in-Tet-On, tetracycline-induced
# Experimental: as §1
# TRPML1 = target: T4, TRPML1 (Mus musculus, UniProt Q99J21); assay: Endolysosomal patch-clamp, murine alveolar macrophages endogenously expressing TRPML1; conditions: EDME 10 µM, ML-SA1 10 µM
# T4 construct: TRPML1 endogenously expressed in mouse alveolar macrophages; endogenous in cells; host or cells: primary murine alveolar macrophages
# Experimental: (§2) For whole-LE/LY manual patch-clamp recordings, cells were treated with 1 μM vacuolin-1 (> 2 h) at 37 °C and 5% CO2 and experiments performed as described previously[19],[25]. Compound was washed out before patch-clamp experimentation. Currents were recorded using an EPC-10 patch-clamp amplifier (HEKA, Lambrecht, Germany) and PatchMaster acquisition software (https://www.heka.com/). Data were digitized at 40 kHz and filtered at 2.8 kHz. Fast and slow capacitive transients were cancelled by the compensation circuit of the EPC-10 amplifier. All recordings were obtained at room temperature and were analyzed using PatchMaster acquisition software (https://www.heka.com/) and OriginPro 6.1 (https://www.originlab.com/). […] For all experiments, salt-agar bridges were used to connect the reference Ag–AgCl wire to the bath solution to minimize voltage offsets. Liquid junction potential was corrected. For the application of the small molecule inhibitors/flavonoids, cytoplasmic solution was completely exchanged by cytoplasmic solution containing compound. The current amplitudes at − 100 mV were extracted from individual ramp current recordings. Unless otherwise stated, cytoplasmic solution contained 140 mM K-MSA, 5 mM KOH, 4 mM NaCl, 0.39 mM CaCl2, 1 mM EGTA and 10 mM HEPES (pH was adjusted with KOH to 7.2). […]
# hTRPML1 WT = target: T5, hTRPML1 WT (Homo sapiens, UniProt Q9GZU1); assay: Endolysosomal patch-clamp, vacuolin-enlarged endo-lysosomes from hTRPML1 WT expressing HEK293 cells; conditions: activation with ML-SA1 (10 µM) or PI(3,5)P2 (1 µM), luminal pH 4.6
# T5 construct: expressed in transfected cells; host or cells: HEK293
# Experimental: as §2
# T3 sequence (Q9GZU1 with tags, fused parts or gaps L15A/L16A): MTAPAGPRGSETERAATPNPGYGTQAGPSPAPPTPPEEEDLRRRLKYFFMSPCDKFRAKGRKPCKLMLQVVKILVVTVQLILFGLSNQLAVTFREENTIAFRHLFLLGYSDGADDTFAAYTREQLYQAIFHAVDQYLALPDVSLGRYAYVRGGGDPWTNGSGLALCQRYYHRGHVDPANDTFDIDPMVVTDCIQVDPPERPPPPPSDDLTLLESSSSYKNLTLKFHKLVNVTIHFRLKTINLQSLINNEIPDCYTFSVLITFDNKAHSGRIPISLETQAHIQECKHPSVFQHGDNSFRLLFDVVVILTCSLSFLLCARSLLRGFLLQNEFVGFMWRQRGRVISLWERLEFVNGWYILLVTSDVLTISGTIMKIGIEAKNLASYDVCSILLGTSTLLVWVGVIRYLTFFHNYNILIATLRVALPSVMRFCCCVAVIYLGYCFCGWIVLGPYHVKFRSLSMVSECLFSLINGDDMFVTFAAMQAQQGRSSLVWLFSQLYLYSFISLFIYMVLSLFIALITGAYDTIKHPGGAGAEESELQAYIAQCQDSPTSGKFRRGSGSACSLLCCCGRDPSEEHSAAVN
# T4 sequence (Q99J21 whole entry): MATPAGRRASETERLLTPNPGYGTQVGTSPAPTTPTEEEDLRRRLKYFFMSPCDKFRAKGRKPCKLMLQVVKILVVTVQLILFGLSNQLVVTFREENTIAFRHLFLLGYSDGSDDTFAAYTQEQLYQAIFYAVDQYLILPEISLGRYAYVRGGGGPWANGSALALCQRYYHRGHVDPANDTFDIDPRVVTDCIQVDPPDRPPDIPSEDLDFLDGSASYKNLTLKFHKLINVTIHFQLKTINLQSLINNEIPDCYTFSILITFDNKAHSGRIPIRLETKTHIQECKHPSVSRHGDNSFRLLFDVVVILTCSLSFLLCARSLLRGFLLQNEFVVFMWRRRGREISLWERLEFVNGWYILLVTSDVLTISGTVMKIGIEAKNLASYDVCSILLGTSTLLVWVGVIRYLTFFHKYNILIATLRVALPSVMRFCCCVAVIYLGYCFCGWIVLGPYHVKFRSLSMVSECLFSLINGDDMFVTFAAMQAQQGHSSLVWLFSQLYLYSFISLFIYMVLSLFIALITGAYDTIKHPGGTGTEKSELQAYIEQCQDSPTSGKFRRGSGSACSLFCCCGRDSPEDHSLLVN
# T2 sequence (Q8NHX9 whole entry L11A/L12A): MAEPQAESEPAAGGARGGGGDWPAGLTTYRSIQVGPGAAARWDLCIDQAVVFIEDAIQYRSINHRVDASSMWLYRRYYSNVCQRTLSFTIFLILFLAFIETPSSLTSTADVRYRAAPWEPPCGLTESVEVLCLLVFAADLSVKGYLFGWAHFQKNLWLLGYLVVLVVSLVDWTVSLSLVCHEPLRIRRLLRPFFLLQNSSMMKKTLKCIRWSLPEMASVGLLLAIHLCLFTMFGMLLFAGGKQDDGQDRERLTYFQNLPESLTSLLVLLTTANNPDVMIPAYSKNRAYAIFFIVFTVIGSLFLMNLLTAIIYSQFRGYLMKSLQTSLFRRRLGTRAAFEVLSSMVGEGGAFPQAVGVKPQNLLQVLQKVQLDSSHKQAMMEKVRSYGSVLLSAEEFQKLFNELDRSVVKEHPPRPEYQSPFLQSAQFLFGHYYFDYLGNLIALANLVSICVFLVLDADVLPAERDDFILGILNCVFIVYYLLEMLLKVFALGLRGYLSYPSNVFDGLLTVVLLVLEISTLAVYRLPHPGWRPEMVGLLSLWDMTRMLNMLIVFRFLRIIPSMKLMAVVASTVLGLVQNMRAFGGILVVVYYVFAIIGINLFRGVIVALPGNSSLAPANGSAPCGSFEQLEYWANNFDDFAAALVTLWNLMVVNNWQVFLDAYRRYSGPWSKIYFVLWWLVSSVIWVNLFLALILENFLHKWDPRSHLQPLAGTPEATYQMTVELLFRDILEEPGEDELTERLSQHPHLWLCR
# T5 sequence (Q9GZU1 whole entry): as the sequence (Q9GZU1 with tags, fused parts or gaps L15A/L16A) above, with A15L, A16L, A577L, A578L counted along it
smiles,measurement,setting,value
"COc1ccc2c(c1)CC[C@@H]1[C@@H]2CC[C@]2(C)[C@@H](O)CC[C@@H]12 [EDME, 17β-estradiol methyl ether]","block of TRPML3, whole-cell patch-clamp",hTRPML3,no block
same,IC50 at other TRP channels,[1],no meaningful IC50s
same,IC50 at TPC2,hTPC2L11A/L12A-RFP,no meaningful IC50s
same,pIC50,[2],6.66
same,inhibition of endogenous TRPML1 in alveolar macrophages,TRPML1,inhibition of TRPML1 activation
same,"inhibition of WT hTRPML1 current, endolysosomal patch-clamp",hTRPML1 WT,inhibitory effect

# — article PMC8050276, “Estradiol analogs attenuate autophagy, cell migration and invasion by direct and selective inhibition of TRPML1, independent of estrogen receptors” (Scientific Reports, 2021)
